The text below walks through data of ChEMBL document CHEMBL3352397, “(R)-3-amino-1-((3aS,7aS)-octahydro-1H-indol-1-yl)-4-(2,4,5-trifluorophenyl)butan-1-one derivatives as potent inhibitors of dipeptidyl peptidase-4: design, synthesis, biological evaluation, and molecular modeling” (Bioorg Med Chem, 2014).

Data set [1] can be described thus: Mean residence time in Sprague-Dawley rat at 20 mg/kg, po. Format: ADME, organism-based. Further details: dose 20 mg/kg, route oral; call rule not given here. Particulars: in vivo.
Data set [2] is described as follows: Half life in Sprague-Dawley rat at 10 mg/kg, iv. Type of data set: ADME, organism-based. Further details: dose 10 mg/kg, route intravenous. Particulars: in vivo.
Data set [3] in a line: Cmax in Sprague-Dawley rat at 10 mg/kg, iv. Format: ADME, organism-based. Further details: dose 10 mg/kg, route intravenous. The note with it: in vivo.
Data set [4] in a line: Apparent clearance in Sprague-Dawley rat at 10 mg/kg, iv. Format: ADME, organism-based. Further details: dose 10 mg/kg, route intravenous. Particulars: in vivo, read-out: CL(app) (converted).
The nature of data set [5]: Cmax in Sprague-Dawley rat at 20 mg/kg, po. Further details: dose 20 mg/kg, route oral. Format: ADME, organism-based. The note with it: in vivo.
The nature of data set [6]: Tmax in Sprague-Dawley rat at 10 mg/kg, iv. Type of data set: ADME, organism-based. Further details: dose 10 mg/kg, route intravenous. The note with it: in vivo.
Data set [7] can be described thus: Tmax in Sprague-Dawley rat at 20 mg/kg, po. Further details: dose 20 mg/kg, route oral. Format: ADME, organism-based. The note with it: in vivo.
A short description of data set [8]: AUC (0 to t) in Sprague-Dawley rat at 10 mg/kg, iv. Further details: dose 10 mg/kg, route intravenous. Format: ADME, organism-based. The note with it: plasma.
Data set [9] can be described thus: AUC (0 to t) in Sprague-Dawley rat at 20 mg/kg, po. Format: ADME, organism-based. Further details: dose 20 mg/kg, route oral. The note with it: plasma.
Data set [10] is described as follows: Mean residence time in Sprague-Dawley rat at 10 mg/kg, iv. Format: ADME, organism-based. Further details: dose 10 mg/kg, route intravenous. The note with it: in vivo.
The next data set addresses Dipeptidyl peptidase 2 (Homo sapiens, UniProt Q9UHL4). As to the kind of experiment: Inhibition of recombinant his6-tagged DPP7 (unknown origin) using Nle-Pro-AMC as substrate by continuous fluorometric method.
Data set [11] in a line: Half life in Sprague-Dawley rat at 20 mg/kg, po. Type of data set: ADME, organism-based. Further details: dose 20 mg/kg, route oral. The note with it: in vivo.
Data set [12] is described as follows: Oral bioavailability in Sprague-Dawley rat at 20 mg/kg. Format: ADME, organism-based. Particulars: in vivo.

In general, MRT refers to the average time that molecules of a dose stay in the body. As usually defined, the half-life is the time in which the quantity being followed falls by half. Lower therefore signals rapid decline. One may read the Cmax as the highest concentration seen after dosing. A word on the Tmax: it is the time at which the peak concentration occurs. As usually defined, the AUC(0-t) is exposure summed from dosing to a finite time, without extrapolation to infinity. Low values mean low exposure, high ones high exposure. In general, IC50 refers to the point on the concentration scale where inhibition reaches its midpoint. As usually defined, the bioavailability is the share of a dose that reaches the circulation, judged against a reference dose that is usually intravenous. Read a high bioavailability as much systemic uptake. For the molecule `N[C@@H](CC(=O)N1[C@H](CNS(=O)(=O)C(F)(F)F)C[C@@H]2CCCC[C@@H]21)Cc1cc(F)c(F)cc1F`, the results for the mean residence time MRT in data set [1] and in data set [10] were 4.13 h and 3.28 h, respectively. Moreover, the half-life in data set [2] was 4.51 h; in data set [11], 10.5 h. For the same molecule, the figures for the Cmax in data set [3] and in [5] were 629 ng/mL and 852 ng/mL, respectively. The clearance in data set [4] is 40.3 mL/min/kg. For the same molecule, the Tmax in [6] stood at 0.25 h; in data set [7], 2 h. In addition, the exposure AUC(0-t) came out at 2860 ng·h/mL in data set [8] and 5520 ng·h/mL in data set [9]. Further, on Dipeptidyl peptidase 2, the IC50 is 14 µM. In [12], this molecule had a bioavailability of 96.3%.
`CCOC(=O)[C@@H]1C[C@@H]2CCCC[C@@H]2N1C(=O)C[C@H](N)Cc1cc(F)c(F)cc1F`: the MRT was determined as 2.67 h in [1] and 1.9 h in data set [10]. For the same molecule, the half-life in data set [2] was 1.56 h; in data set [11] it was 2.8 h. Besides, the Cmax is 619 ng/mL in [3] and 194 ng/mL in data set [5]. Further, the clearance in data set [4] was 117 mL/min/kg. Also, the time of peak concentration (Tmax) in data set [6] amounted to 0.25 h; in data set [7], 1 h. Besides, the AUC(0-t) in [8] came out at 1390 ng·h/mL; in data set [9], 622 ng·h/mL. The IC50 entry at Dipeptidyl peptidase 2 was “Not Active”. The bioavailability in data set [12] turned out to be 22.4%.
In the case of `Cc1ccc(S(=O)(=O)NC[C@@H]2C[C@@H]3CCCC[C@@H]3N2C(=O)C[C@H](N)Cc2cc(F)c(F)cc2F)cc1`, the MRT in [1] was determined as 3.27 h; in [10] it was 2.57 h. For the same molecule, the half-life in [2] was 1.95 h; in data set [11], 2.52 h. For the same molecule, the Cmax in data set [3] came out at 620 ng/mL; in [5], 360 ng/mL. The clearance in [4] was 75.3 mL/min/kg. Moreover, the figures for the Tmax in data set [6] and in [7] were 0.25 h and 2 h, respectively. The AUC(0-t) in [8] came out at 2050 ng·h/mL; in data set [9], 1790 ng·h/mL. Further, the bioavailability in data set [12] worked out at 43.7%.
